# Reference: patent publication US9422308B2, “Derivatives of docosahexaenoylethanolamide and uses thereof” (The United States of America, as represented by the …, priority 2012, dated 2016)
# Experiments:
# [1] = system: fatty acid amide hydrolase (FAAH); test: incubation with WT or FAAH KO brain homogenates (susceptibility to FAAH hydrolysis); assay type: in vitro ADME, mouse; conditions: for susceptibility to hydrolysis by FAAH: WT or FAAH KO brain homogenates
# Protocol: Wildtype (WT) or FAAH knock out (KO) brain homogenates were incubated with either A8 or synaptamide.
# Incubation of synaptamide and A8 with brain homogenates: Make 5× pH 9 assay buffer (625 mM Tris, 5 mM EDTA). Collect fresh brains of C57 mice into cold 1× pH 9 assay buffer. Homogenize entire brain (including cerebellum) in 2 mL of cold buffer using a conical Potter-Evehjem type tissue homogenizer driven by a motor. Perform incubations in washed and silanized 10 mL glass test tubes at 37° C. for 1 hour. Add 10 pmoles each of A8 and d4-synaptamide (5 uL of a 2 pmol/uL mixture of A8 and d4-synaptamide in DMSO). See Kim et al., Prostaglandins & Other Lipid Mediators, 96(1-4):114-120 (2011) for the structure of d4-synaptamide (d4-DEA). Add 500 μL of brain homogenate per incubation tube. Vortex gently. Incubate at 37° C. in a water bath, shaking at 42 rpm for 1 hour. Stop reaction by adding 1 mL chloroform, 1 mL methanol, 1 mL methanol/BHT (50 mg/L BHT) and 300 μL water. Vortex to mix, store under an inert gas at −80° C. until. Ready to extract via the method of Bligh and Dyer, Canadian J. Biochem. 37: 911-917, 1959.
# Extraction procedure: Incubations are already in the 1st Bligh-Dyer ration (0.8:1:2 aqueous:CHCl3:MeOH). Work on wet ice. Add 10 pmoles of d4-anandamide which will be used as an internal standard to give relative quantification of the unhydrolyzed d4-synaptamide and A8. Add 1 mL water and 1 mL CHCl3 to each tube, purge with nitrogen, vortex vigorously 1 minute. Centrifuge 5 minutes at 4° C.; 3,000 rpm (Sorvall RTH 750 rotor) to separate phases. Extract the organic phase (bottom layer) to a clean silanized 10 mL test tube using glass Pasteur pipette. Avoid getting any aqueous phase in extract. Add 2 mL CHCl3 to the aqueous phase, purge with nitrogen and vortex 1 minute. […] Cap vials under argon and store at −80° C. until ready to analyze via HPLC-MS.
# Ten pmoles each of A8 and d4-synaptamide were incubated with WT or FAAH KO brain homogenates or buffer (B, […]). Relative quantitation was performed via SRM mass spectrometry.
# FAAH KO mice = test: beam walk test after traumatic brain injury by controlled cortical impact; assay type: in vivo; conditions: one-time i.p. 25 mg/kg at 15 min after TBI (CCI), from the day 4 after TBI, FIG. 8
# Protocol: For the beam walk test, mice were trained to traverse a narrow beam before injury caused by controlled cortical impact (CCI), and the number of hind foot slips after injury was observed over the course of recovery.
# A8 has increased resistance to FAAH in comparison to synaptamide but still does show some susceptibility to hydrolysis by FAAH. The effects of A8 in FAAH KO mice were tested by one-time i.p. administration of A8 (25 mg/kg) at 15 min after traumatic brain injury (TBI) inflicted by controlled cortical impact (CCI).
# neural stem cells = test: neuronal and glial differentiation of neural stem cells (MAP2/GFAP immunofluorescence); assay type: cell-based, rats; conditions: 7 days, differentiating NSCs
# Protocol: Fetal neural stem cell culture: Neural stern cells (NSCs) were cultured by the neurosphere method (Rietze R. L., Reynolds B. A. (2006) Neural stem cell isolation and characterization. Methods Enzymol. 419, 3-23, the method incorporated by reference herein) with slight modification. Forebrain cortices of rats were isolated on embryonic day 14.5 and 12.5, respectively. The cortices were mechanically disrupted into single cells by repeated pipetting in a serum-free conditioned medium (N2 medium) containing DMEM/F12 (1:1), 0.6% (wt/vol) glucose, 0.1125% (wt/vol) sodium bicarbonate, 2 mM L-glutamine, 5 mM HEPES, 100 μg/mL human apo-transferrin, 20 nM progesterone, 30 nM sodium selenite, 60 μM putrescine, and 25 μg/mL insulin. The dissociated cells were cultured in 6 cm dishes at a density of 1×10^5 cells/mL in N2 medium with 20 ng/mL bFGF and 2 μg/mL heparin in a humidified 5% CO2/95% air incubator at 37° C. Within 3-4 days, the cells grew as free-floating neurospheres that were then collected by centrifugation, mechanically dissociated by pipetting, and passaged.
# Differentiation of NSCs: After the second passage, nestin- and SOX2-positive NSCs were enriched in the neurosphere with minimal presence of differentiated cells (MAP2, Tuj-1 and GFAP-positive cells). After the second passage neurospheres were mechanically dissociated and 5×10^5 cells/mL were plated onto 15 μg/mL poly-L-ornithine coated 6- or 24-well plates in N2 medium without bFGF and heparin to initiate the differentiation. The cultures were then treated with N2 medium containing A8 in the presence of 40 μM vitamin E for 1-7 days. As the vehicle control, N2 medium containing 40 μM vitamin E was used.
# Immunofluorescence staining: For immunofluorescence staining, 2.5×10^5 NSCs were cultured in 0.5 mL media. […] Finally, the cells were mounted with 80% (vol/vol) glycerol, visualized under a fluorescence microscope and the image data were processed using MetaMorph software for quantitative information. The number of MAP2- and GFAP-positive cells were counted from three separate wells with three to six random fields per well. […]
smiles,measurement,setting,value
"CC/C=C\C/C=C\C/C=C\C/C=C\C/C=C\C/C=C\CCC(=O)NCC(C)(C)O [Compound 1, (4Z,7Z,10Z,13Z,16Z,19Z)—N-(2-hydroxy-2-methylpropyl)docosa-4,7,10,13,16,19-hexaenamide]",susceptibility to hydrolysis by FAAH,"[1]; Example 3, FIG. 5",less susceptible to hydrolysis by FAAH than synaptamide
same,susceptibility to hydrolysis by FAAH,"[1]; Example 4, 10 pmoles, pH 9, 37° C., 1 hour, FIG. 6, vs d4-synaptamide",less susceptible to hydrolysis by FAAH than the deuterated synaptamide
same,percent recovery of compound after incubation with brain homogenate,"[1]; WT and FAAH KO brain homogenate, FIG. 5, compared with synaptamide",higher than synaptamide
same,"TBI-induced behavioral deficit (beam walk test, hind foot slips)",FAAH KO mice,significant improvement
same,MAP2 positive cells,"neural stem cells; 1 nM, control 7.0±0.8, p=0.02",10.8±1.8%
same,differentiation into GFAP positive cells,neural stem cells; 1-100 nM range,not affected
same,MAP2 positive cells (maximum effect),"neural stem cells; around 10 nM, p=0.007",17.2±4.1%
